From patent US6774144B1, “Methods and formulations for the treatment of infectious bursal disease in avian subjects” (The University of North Carolina at Chapel Hill, priority 1999, dated 2004)

How the values were obtained:
[1] = test system: Delaware Variant A strain of IBDV; assay: In vitro IBDV replication assay in chick embryo fibroblasts (viral antigen capture ELISA); settings: compounds maintained in the culture medium throughout
cells = assay: MTT assay for cell viability (cell toxicity); type: cell-based; settings: highest concentration tested 1 mM
Protocol: BABIM, SW066, and DAP092 were assessed for cell toxicity using the MTT assay for cell viability described in T. Mossman, J. Immunol. Methods 65, 55-63 (1983). […] 10 μl of MTT reagent was added to each wall and incubated for four hours at 38° C. Acid-isopropanol was added to stop the reaction and plates were read within one hour at 570 nm and 630 nm. The 630 nm reading was subtracted from the 570 nm reading. No toxicity was reported for BABIM.

APHIS isolate of IBDV = assay: In vivo drug treatment of IBDV-challenged SPF leghorn chickens (Example 10); settings: for appearance of bursas upon necropsy: 20 mg/kg nares/cloaca; for appearance of bursas upon necropsy / Lymphocyte Population Per Gram of Bursal tissue, Percentage Uninfected Control: three days; for Lymphocyte Population Per Gram of Bursal tissue, Percentage Uninfected Control: 100 EID APHIS IBDV at three weeks of age, 20 mg/kg, half in the nares, half in the cloaca; for lymphocyte populations: three days after infection
Protocol: SPF leghorn chickens were challenged at three weeks of age with an 100 EID APHIS isolate of IBDV. Approximately 12 birds were contained in an isolator unit with four units being employed. In each isolator unit, two birds received either drug or a placebo. One unit contained uninfected controls. The birds are treated with the drugs SW066, DAP092, DB453, DB197, and DB203 for three days. Half of the drug dosage was administered in the nares, while the second half was administered in the cloaca, at a dosage of 20 mg/kg. At necropsy, the birds were weighed, their bursa removed, weighed, and ground with a tissue homogenizer. The ground bursa material was evaluated for lymphocyte counts and viral load.

APHIS strain IBDV = assay: Leghorn drug study (Example 13); type: in vivo, Leghorns; settings: for protection against IBDV (rank order): 100 EID APHIS IBDV, one mL of 4 mg/ml orally at challenge, 24 and 48 hours PI, necropsy three days post-challenge
Protocol: The procedure according to Example 12 was carried out with the following modifications: the drugs SW066, DB197, DB528, DB203 and DAP092 were tested in three week old Leghorns for protection against 100 EID of APHIS strain IBDV. The drugs were suspended in histidine-saline and used at a concentration of 4 mg/ml. One mL of drug was administered orally on the day of challenge (30 minutes prior to challenge), 24 hours PI and 48 hours PI. Birds were euthanised by CO2 inhalation and necropsied at three days post-challenge. Each drug and placebo cohort consisted of eight leghorns. Birds were weighed and sorted on the day of challenge to co-mingle birds of different weights and monitor drug dose per body weight. Birds were raised in isolation units. Each unit held 12 birds, two birds for each of the six cohorts (i.e., placebo, SW066, DB197, DB528, DB203 and DAP092). In addition, 12 uninfected birds were housed in a separate isolation unit.
The viral load of the bursa was determined by antigen capture ELISA, as described in Example 2, while absolute lymphocyte cell counts were determined by hemocytometer.

APHIS IBDV strain [2] = assay: Evaluation of drug effect to prevent or inhibit IBD, SW066 intravenous and prodrug oral (Example 12); type: in vivo, chicks
Protocol: The procedure according to Example 11 was carried out, with a variation in which chicks were placed in six groups of ten birds each, as follows: (1) no virus control (oral placebo), (2) no virus control (SW066 intravenous), (3) no virus control (prodrug of SW066 oral), (4) APHIS IBDV strain 130 EID (oral placebo), (5) APHIS IBDV strain 130 EID (SW066 intravenous), and (6) APHIS IBDV strain 130 EID (prodrug of SW066 oral). The birds were challenged at three weeks of age with 100 μl of APHIS strain divided between the eye and nares. Drug was administered intravenously or orally. The prodrug version of SW066 was used via the oral route to enhance absorption. Daily drug treatment began the same day and thirty minutes prior to challenge. After seven days, survivors were sacrificed and necropsied.

IBDV Variant A = type: cell-based, infectious bursal disease virus; settings: 0.1 mM drug
IBDV [3] = assay: Trypsin competition experiment; type: cell-based, infectious bursal disease virus; settings: trypsin 1 mg/ml added to the cells in culture
Protocol: It is known that the addition of trypsin can enhance the attachment and penetration of respiratory syncytial virus and rotavirus. A trypsin competition experiment was performed in order to confirm that the activity of the inventive compounds of the present invention is not the result of protease-mediated virus attachment or penetration, as follows: trypsin (1 mg/ml) was added to the cells in culture described above in Example 6.

IBDV [4] = assay: Virucidal effect: viability of virions produced in the presence of drug, second set of CEF cultures; type: cell-based, infectious bursal disease virus
Protocol: IBDV-infected cells were treated with varying concentrations (0.01 μM, 0.1 μM, 1 μM, 10 μM and 100 μM) of SW066 for 24 hours. After 24 hours, SW066 was washed away from the cell. After 72 hours of total incubation time (i.e., after the life cycle of IBDV is predicted to be complete), the resulting virions were harvested, as described above.
In order to determine if the virions produced in the presence of drug are viable, varying dilutions of these viral preparations were used to inoculate a second set of CEF cultures. Concentrations of the viral dilutions were as follows: 1.00E-10, 1.00E-09, 1.00E-08, 1.00E-07, 1.00E-06 and 1.00E-05. After 72 hours of incubation, cells were treated by a freeze-thaw method to harvest viral particles, and were assayed by ELISA as described in Example 2.

APHIS IBDV strain [5] = assay: Evaluation of drug effect to prevent or inhibit IBD, oral SW066 (Example 11); type: in vivo, chicks
Protocol: Chicks were placed in four groups of nine birds each. The four groups were: (1) no virus control (placebo), (2) no virus control (treated with SW066), (3) APHIS IBDV strain at 130 EID (placebo), and (4) APHIS IBDV strain at 130 EID (treated with SW066). The birds were challenged at two weeks of age with 10 μL of the APHIS strain divided between the eye and nares. The drug was administered orally, one mL at a concentration of five mg/mL. […] Daily drug treatment began the same day and 30 minutes prior to challenge. After seven days, survivors were sacrificed and necropsied.
The virus is believed to cause necrosis in the bursa and to reach a plateau of virus level at three days post-challenge. As the inflammation begins to subside, the organ decreases in size and is severely atrophied at seven to ten days post-challenge. The bursa weight is accordingly a measure of bursal disease severity and was used in this experiment to detect differences between treatment groups.

IBDV [6] = type: cell-based, infectious bursal disease virus

N=C(N)c1ccc2nc(Cc3nc4ccc(C(=N)N)cc4[nH]3)[nH]c2c1 [BABIM]
inhibition of IBDV replication (virion formation) [1]: most significant decrease of virion formation
cell toxicity (MTT assay) (cells): No toxicity

Cc1cnc(-c2ccc(C3=NCCN3)cc2)nc1-c1ccc(C2=NCCN2)cc1 [DB197]
appearance of bursas upon necropsy (APHIS isolate of IBDV): appeared identical to those from the uninfected control group
Lymphocyte Population Per Gram of Bursal tissue, Percentage Uninfected Control (APHIS isolate of IBDV): 60.5 Percentage Uninfected Control
lymphocyte populations (APHIS isolate of IBDV): maintenance of relatively normal lymphocyte populations
protection against IBDV (rank order) (APHIS strain IBDV): the most protection
lymph per bursa cell number versus uninfected controls (APHIS strain IBDV; t-test, p-value=0.01): significantly different from uninfected controls
lymph per bursa cell number (rank among groups) (APHIS strain IBDV; three days post-challenge): the highest

COc1cc(C2=NCCN2)ccc1-c1ccnc(-c2ccc(C3=NCCN3)cc2)n1 [DB203]
appearance of bursas upon necropsy (APHIS isolate of IBDV): appeared identical to those from the uninfected control group
Lymphocyte Population Per Gram of Bursal tissue, Percentage Uninfected Control (APHIS isolate of IBDV): 51.3 Percentage Uninfected Control
lymphocyte populations (APHIS isolate of IBDV): maintenance of relatively normal lymphocyte populations
protection against IBDV (rank order) (APHIS strain IBDV): DB197>DB203>DB528>DAP092>SW066

N=C(N)c1ccc2oc3ccc(C(=N)N)cc3c2c1 [SW066]
bursa weight of survivors, difference between groups (APHIS IBDV strain [2]; SW066 intravenous or prodrug oral, seven days): No statistical significant difference
mortality (APHIS IBDV strain [2]; SW066 intravenous, APHIS IBDV 130 EID, ten birds, placebo 40%): 10%
inhibition of IBDV replication (virion formation) [1]: most significant decrease of virion formation
Lymphocyte Population Per Gram of Bursal tissue, Percentage Uninfected Control (APHIS isolate of IBDV): 4.3 Percentage Uninfected Control
effectiveness in decreasing virion formation (comparison of the three compounds) (IBDV Variant A): most effective
effect in reducing IBDV production (IBDV Variant A; even at the high concentrations of virus): significant effect in reducing IBDV production
cytopathic effect (CPE), inverted microscope (IBDV Variant A; highest concentration of virus): Very little CPE
cell toxicity (MTT assay) (cells): some toxicity may be associated
effect of the presence of trypsin on the drug's activity (IBDV [3]): not found to inhibit the drug's activity
long term drug effect in the second set of cultures (IBDV [4]; 10 μM of drug): long term drug effect was also observed for some virus dilutions
duration of the virucidal effect (IBDV [4]; drug for 24 hours then washed away, virions harvested at 72 hours): not transient
virus propagation in the second set of cultures (IBDV [4]; first set of cultures treated at 100 μM, with the exception of the 10^-5 dilution of virus): did not propagate virus
lowest concentration of drug that demonstrated anti-viral activity (IBDV [4]; with the 10^-10 dilution of virus): 1 µM
bursa weights versus placebo group (APHIS IBDV strain [5]; 130 EID APHIS IBDV, oral one mL of five mg/mL daily, seven days, p=0.05): higher in the drug treatment group compared to the placebo group
post-challenge titers, infected drug versus placebo group (APHIS IBDV strain [5]; 130 EID APHIS IBDV, oral, seven days): not significantly different
deaths in the challenge group (APHIS IBDV strain [5]; groups of nine birds, same number died with placebo): Two birds died
bursa histology score (APHIS IBDV strain [5]; infected birds, placebo group all scored four, remaining drug birds scored four): two birds in the drug group (n=7) were scored as three
protection from IBDV induced B-cell depletion (APHIS IBDV strain [5]; oral, 130 EID): some protection
virus production when drug is added after infection (IBDV [6]; added after 12 hours): very little potential effect on virus production
virus replication when drug is added after infection (IBDV [6]; added prior to the 12 hour incubation time point): potentially substantial inhibition of virus replication
virus production when drug is removed by washing (IBDV [6]; drug remains in the culture past the one hour time point): significant decrease in virus production
virion formation when drug is removed by washing (IBDV [6]; removed prior to one hour): little or no affect on virion formation
protection against IBDV (rank order) (APHIS strain IBDV): DB197>DB203>DB528>DAP092>SW066
